Results taken from US6143764A, “Quinoline and quinazoline derivatives inhibiting platelet-derived growth factor receptor autophosphorylation and pharmaceutical compositions containing the same” (priority 1995, dated 2000).
pIC50: −log10 of the molar value.

Molecular target: T1, PDGF receptor (Rattus norvegicus, UniProt Q05030)
T1 construct: cultured rat mesangial cells which are known to have the PDGF receptor; endogenous in cells; host or cells: primary mesangial cells cultured from glomeruli of Wistar-Kyoto rats (Charles River Japan), more than 5 passages
Assay: PDGF receptor autophosphorylation inhibition in cultured rat mesangial cells
Assay type: cell-based
Conditions: PDGF-BB 50 ng/ml
Experimental: 1. Cultivation of rat mesangial cells
The glomerulus-derived adhesive cells were subcultured several times to obtain mesangial cells. The mesangial cells subcultured more than 5 passages were used for the assay.
2.Evaluation of PDGF receptor autophosphorylation inhibition
The mesangial cells were seeded in 24-well flat-bottom microtiter plates and then cultured in the medium containing 10% FCS for 2 days. When the cells were grown to about 3×10^4 cells per well, the medium was changed to the medium containing 0.5% FCS, the cultivation was continued for another 3 days, and then cell growth was arrested. The culture medium was removed, the adhered cells were washed with 500 μl of the medium, and 250 μl of the medium containing 0.1% bovine serum albumin (hereinafter abbreviated to BSA) was then added. A test drug dissolved in 1.38 μl of dimethyl sulfoxide (hereinafter abbreviated to DMSO) was added to this culture medium, and the admixture was incubated at 37° C. for 1 hour. Recombinant human platelet-derived growth factor BB chain (hereinafter abbreviated to PDGF-BB) was dissolved in the medium containing 0.1% BSA, 25 μl per well of the solution was added at final 50 ng/ml, and the incubation was continued at 37° C. for 10 minutes. […] The cells were allowed to stand at 4° C. for 30 minutes for lysis, and the resulting solution was thoroughly admixed with an equal amount of Tris-buffered physiological saline containing 1% sodium dodecyl sulfate (hereinafter abbreviated to SDS). […] After the electrophoresis, proteins in the gel were electrically transferred to a PVDF filter, which was then subjected to Western blotting using monoclonal antibodies against phosphotyrosine. Bands of PDGF receptor (molecular weight: about 180 Kda) which were autophosphorylated due to the addition of PDGF-BB were quantitated by a densitometer. Autophosphorylation rates for individual wells with drugs were calculated by setting measurements for PDGF receptor autophosphorylation in the wells without drugs in the presence and absence of PDGF-BB as 100% and 0%, respectively.

T1 sequence (Q05030 32-1097): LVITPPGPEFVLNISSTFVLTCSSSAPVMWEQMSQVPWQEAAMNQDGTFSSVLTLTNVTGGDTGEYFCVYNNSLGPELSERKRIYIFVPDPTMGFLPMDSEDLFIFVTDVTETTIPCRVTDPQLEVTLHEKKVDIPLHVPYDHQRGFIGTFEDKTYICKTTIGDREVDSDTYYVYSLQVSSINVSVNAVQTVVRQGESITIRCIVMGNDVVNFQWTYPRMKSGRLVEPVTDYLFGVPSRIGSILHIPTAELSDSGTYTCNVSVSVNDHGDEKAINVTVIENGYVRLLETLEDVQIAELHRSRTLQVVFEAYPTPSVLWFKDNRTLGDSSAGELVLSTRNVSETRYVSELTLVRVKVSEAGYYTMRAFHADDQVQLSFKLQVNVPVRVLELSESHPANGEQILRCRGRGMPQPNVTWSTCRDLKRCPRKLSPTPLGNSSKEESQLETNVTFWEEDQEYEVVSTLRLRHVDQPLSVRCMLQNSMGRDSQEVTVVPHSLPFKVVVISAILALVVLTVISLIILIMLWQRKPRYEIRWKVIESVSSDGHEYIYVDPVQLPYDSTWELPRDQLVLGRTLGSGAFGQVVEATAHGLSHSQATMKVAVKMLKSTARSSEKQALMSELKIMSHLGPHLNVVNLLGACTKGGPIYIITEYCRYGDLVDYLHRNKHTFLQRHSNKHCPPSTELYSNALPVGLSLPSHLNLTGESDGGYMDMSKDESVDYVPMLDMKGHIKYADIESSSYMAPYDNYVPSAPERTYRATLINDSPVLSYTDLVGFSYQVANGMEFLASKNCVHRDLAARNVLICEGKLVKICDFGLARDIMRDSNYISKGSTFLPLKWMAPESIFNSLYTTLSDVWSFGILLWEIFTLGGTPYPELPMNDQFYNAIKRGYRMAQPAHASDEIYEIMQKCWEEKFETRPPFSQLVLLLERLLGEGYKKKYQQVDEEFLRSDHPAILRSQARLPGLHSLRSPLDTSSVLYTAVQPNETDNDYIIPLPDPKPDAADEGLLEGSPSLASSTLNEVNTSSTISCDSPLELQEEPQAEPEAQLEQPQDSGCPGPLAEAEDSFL

SMILES | pIC50
COc1cc2nccc(Oc3ccc(NC(=O)Nc4ccc([N+](=O)[O-])cc4Cl)cc3)c2cc1OC [Compound 224, N-(2-Chloro-4-nitrophenyl)-N'-{4-[(6,7-dimethoxy-4-quinolyl)oxy]phenyl}urea] | 7.06
COc1cc2nccc(Oc3ccc(NC(=O)Nc4c(C)cccc4Cl)cc3)c2cc1OC [Compound 226, N-(2-Chloro-6-methylphenyl)-N'-{4-[(6,7-dimethoxy-4-quinolyl)oxy]phenyl}urea] | 7.96
COc1cc2nccc(Oc3ccc(NC(=O)Nc4ccc(Cl)c([N+](=O)[O-])c4)cc3)c2cc1OC [Compound 228, N-(4-Chloro-3-nitrophenyl)-N'-{4-[(6,7-dimethoxy-4-quinolyl)oxy]phenyl}urea] | 7.26
COc1cc2nccc(Oc3ccc(NC(=O)Nc4c(Cl)cccc4Cl)cc3)c2cc1OC [Compound 230, N-(2,6-Dichlorophenyl)-N'-{4-[(6,7-dimethoxy-4-quinolyl)oxy]phenyl}urea] | 7.47
COc1cc2nccc(Oc3ccc(NC(=O)NC(C)c4cccc5ccccc45)cc3)c2cc1OC (centres unmarked) [Compound 231, N-{4-[(6,7-dimethoxy-4-quinolyl)oxy]phenyl)-N'-[1-(1-naphthyl)ethyl]urea] | 7.72
CCCCc1ccccc1NC(=O)Nc1ccc(Oc2ccnc3cc(OC)c(OC)cc23)cc1 [Compound 232, N-(2-n-Butylphenyl)-N'-(4-[(6,7-dimethoxy-4-quinolyl)oxy]phenyl}urea] | 7.74
CCOC(=O)c1cccc(NC(=O)Nc2ccc(Oc3ccnc4cc(OC)c(OC)cc34)cc2)c1 [Compound 233, N-(3-Ethoxycarbonylphenyl)-N'-{4-[(6,7-dimethoxy-4-quinolyl)oxy]phenyl}urea] | 7.89
COc1cc2nccc(Oc3ccc(NC(=O)Nc4ccc(Cl)cc4[N+](=O)[O-])cc3)c2cc1OC [Compound 238, N-(4-Chloro-2-nitrophenyl)-N'-{4-[(6,7-dimethoxy-4-quinolyl)oxy]phenyl}urea] | 7.80
COc1cc2nccc(Oc3ccc(NC(=O)Nc4ccc(Cl)cc4N)cc3)c2cc1OC [Compound 239, N-(2-Amino-4-chlorophenyl)-N'-{4-[(6,7-dimethoxy-4-quinolyl)oxy]phenyl}urea] | 8.30
COc1cc2nccc(Oc3ccc(NC(=O)NC(=O)c4ccccn4)cc3)c2cc1OC [Compound 240, N-{4-[(6,7-dimethoxy-4-quinolyl)oxy]phenyl}-N'-(2-pyridinecarbonyl)urea] | 6.82
COc1cc(OC)c(NC(=O)Nc2ccc(Oc3ccnc4cc(OC)c(OC)cc34)cc2)cc1Cl [Compound 241, N-(3-Chloro-4,6-dimethoxyphenyl)-N'-{4-[(6,7-dimethoxy-4-quinolyl)oxy]phenyl}urea] | 7.74
COCCCNC(=O)Nc1ccc(Oc2ccnc3cc(OC)c(OC)cc23)cc1 [Compound 245, N-(3-Methoxypropyl)-N'-{4-[(6,7-dimethoxy-4-quinolyl)oxy]phenyl}urea] | 8.22
COc1cc2nccc(Oc3ccc(NC(=O)NC4CCCCC4)cc3)c2cc1OC [Compound 253, N-(Cyclohexyl)-N'-{4-[(6,7-dimethoxy-4-quinolyl)oxy]phenyl}urea] | 8.15
COc1cc2nccc(Oc3ccc(NC(=O)Nc4c(F)cc(F)cc4F)cc3)c2cc1OC [Compound 256, N-(2,4,6-Trifluorophenyl)-N'-{4-[(6,7-dimethoxy-4-quinolyl)oxy]phenyl}urea] | 8.40
COc1cc2nccc(Oc3ccc(NC(=O)Nc4ccc(F)c(F)c4F)cc3)c2cc1OC [Compound 257, N-(2,3,4-Trifluorophenyl)-N'-{4-[(6,7-dimethoxy-4-quinolyl)oxy]phenyl}urea] | 8.15
COc1ccc(OC)c(NC(=O)Nc2ccc(Oc3ccnc4cc(OC)c(OC)cc34)cc2)c1 [Compound 258, N-(2,5-Dimethoxyphenyl)-N'-{4-[(6,7-dimethoxy-4-quinolyl)oxy]phenyl}urea] | 8.15
COc1cc(NC(=O)Nc2ccc(Oc3ccnc4cc(OC)c(OC)cc34)cc2)cc(OC)c1 [Compound 259, N-(3,5-Dimethoxyphenyl)-N'-{4-[(6,7-dimethoxy-4-quinolyl)oxy]phenyl}urea] | 8.30
COc1cc2nccc(Oc3ccc(NC(=O)Nc4c(F)cccc4F)cc3)c2cc1OC [Compound 263, N-(2,6-Difluorophenyl)-N'-{4-[(6,7-dimethoxy-4-quinolyl)oxy]phenyl}urea] | 8.40
COc1ccc(NC(=O)Nc2ccc(Oc3ccnc4cc(OC)c(OC)cc34)cc2)c(OC)c1 [Compound 265, N-(2,4-Dimethoxyphenyl)-N'-{4-[(6,7-dimethoxy-4-quinolyl)oxy]phenyl}urea] | 8.30
COc1cc2nccc(Oc3ccc(NC(=O)Nc4cccc(OC)c4OC)cc3)c2cc1OC [Compound 268, N-(2,3-Dimethoxyphenyl)-N'-{4-[(6,7-dimethoxy-4-quinolyl)oxy]phenyl}urea] | 8.15
COc1cc2nccc(Oc3ccc(NC(=O)Nc4ccc(OC(C)=O)cc4)cc3)c2cc1OC [Compound 270, N-(4-Acetoxyphenyl)-N'-{4-[(6,7-dimethoxy-4-quinolyl)oxy]phenyl}urea] | 8.22
COc1cc2nccc(Oc3ccc(NC(=O)Nc4cc(OC)c(OC)c(OC)c4)cc3)c2cc1OC [Compound 271, N-(3,4,5-Trimethoxyphenyl)-N'-{4-[(6,7-dimethoxy-4-quinolyl)oxy]phenyl}urea] | 8.40
COc1cc2nccc(Oc3ccc(NC(=O)Nc4cc(F)ccc4F)cc3)c2cc1OC [Compound 273, N-(2,5-Difluorophenyl)-N'-{4-[(6,7-dimethoxy-4-quinolyl)oxy]phenyl}urea] | 8.30
COc1cc2nccc(Oc3ccc(NC(=O)Nc4ccc(N)cc4Cl)cc3)c2cc1OC [Compound 274, N-(4-Amino-2-chlorophenyl)-N'-{4-[(6,7-dimethoxy-4-quinolyl)oxy]phenyl}urea] | 7.44
COc1cc2nccc(Oc3ccc(NC(=O)NCCCCl)cc3)c2cc1OC [Compound 278, N-(3-Chloropropyl)-N'-{4-[(6,7-dimethoxy-4-quinolyl)oxy]phenyl}urea] | 8.52
COc1cc2nccc(Oc3ccc(NC(=O)Nc4ccc(Oc5ccc(F)cc5)nc4)cc3)c2cc1OC [Compound 279, N-{5-[2-(4-fluoro)phenoxy]-pyridyl}-N'-(4-[(6,7-dimethoxy-4-quinolyl)oxy]phenyl}urea] | 7.54
COc1cc2nccc(Oc3ccc(NC(=O)Nc4cccc(C(=O)O)c4)cc3)c2cc1OC [Compound 283, N-(3-Hydroxycarbonylphenyl)-N'-{4-[(6,7-dimethoxy-4-quinolyl)oxy]phenyl}urea] | 8.70

More lines, now with the values ahead:

pIC50 | SMILES
7.89 | COCCNC(=O)Nc1ccc(Oc2ccnc3cc(OC)c(OC)cc23)cc1 [Compound 246, N-(2-Methoxyethyl)-N'-{4-[(6,7-dimethoxy-4-quinolyl)oxy]phenyl}urea]
8.05 | COc1cc2nccc(Oc3ccc(NC(=O)NCc4ccccn4)cc3)c2cc1OC [Compound 247, N-(4-[(6,7-Dimethoxy-4-quinolyl)oxy]phenyl)-N'-(2-pyridylmethyl)urea]
7.20 | COc1cc2nccc(Oc3ccc(NC(=O)NCc4ccc(C(C)(C)C)cc4)cc3)c2cc1OC [Compound 248, N-[(4-tert-Butylphenyl)methyl]-N'-{4-[(6,7-dimethoxy-4-quinolyl)oxy]phenyl}urea]
7.39 | COc1cc2nccc(Oc3ccc(NC(=O)NCc4cccnc4)cc3)c2cc1OC [Compound 249, N-(4-[(6,7-Dimethoxy-4-quinolyl)oxy]phenyl)-N'-(3-pyridylmethyl) urea]
7.77 | COc1cc2nccc(Oc3ccc(NC(=O)NCc4ccncc4)cc3)c2cc1OC [Compound 250]
7.44 | COc1cc2nccc(Oc3ccc(NC(=O)NCc4ccc(N(C)C)cc4)cc3)c2cc1OC [Compound 251, N-{4-[(6,7-Dimethoxy-4-quinolyl)oxy]phenyl}-N'-[(4-dimethylaminophenyl)methyl]urea]
9.00 | COc1cc2nccc(Oc3ccc(NC(=O)Nc4ccccc4Cl)cc3)c2cc1OC [Compound 266, N-(2-Chlorophenyl)-N'-{4-[(6,7-dimethoxy-4-quinolyl)oxy]phenyl}urea]
8.10 | COc1cc2nccc(Oc3ccc(NC(=O)Nc4ccc(O)cc4)cc3)c2cc1OC [Compound 269, N-(4-Hydroxyphenyl)-N'-{4-[(6,7-dimethoxy-4-quinolyl)oxy]phenyl}urea]
8.30 | COc1cc2nccc(Oc3ccc(NC(=O)Nc4ccccc4SC)cc3)c2cc1OC [Compound 276, N-(2-Methylthiophenyl)-N'-{4-[(6,7-dimethoxy-4-quinolyl)oxy]phenyl}urea]
7.92 | COc1cc2nccc(Oc3ccc(NC(=O)Nc4ccccc4O)cc3)c2cc1OC [Compound 281, N-(2-Hydroxyphenyl)-N'-{4-[(6,7-dimethoxy-4-quinolyl)oxy]phenyl}urea]
8.10 | COc1cc2nccc(Oc3ccc(NC(=O)Nc4cccc(O)c4)cc3)c2cc1OC [Compound 282, N-(3-Hydroxyphenyl)-N'-{4-[(6,7-dimethoxy-4-quinolyl)oxy]phenyl}urea]
